Experimental data from article PMC8635421, “Illumination of serotonin transporter mechanism and role of the allosteric site” (Science Advances, 2021).

Columns and labels:
SERT [1] = molecular target: T1, SERT (Homo sapiens, UniProt P31645); assay: biochemical; assay type: binding; conditions: competition with [3H]paroxetine, SERT in nanodiscs, 100 mM NaCl, 20 nM [3H]paroxetine, n = 3 technical replicates
T1 construct: N- and C-terminally truncated but otherwise wild-type (ΔN72, ΔC13); GFP (C); Strep tag (purification tag); made in house; host or cells: HEK-293S GnTI- cells, baculovirus-mediated transduction
Experimental: (§1) All the competition-binding experiments were performed using scintillation proximity assays (SPAs) ([58]) with Cu-YSi beads (1 mg ml^−1) in SPA buffer containing 20 mM tris-HCl (pH 8), 100 mM NaCl, or 100 mM KCl. […] For the [^3H]paroxetine experiments, 1 nM SERT was used along with 0.3 μM to 10 mM of the cold competitors and 20 nM [^3H]paroxetine. […] Experiments were measured in triplicate. The error bars for each data point represent the SEM Ki values and were determined with the Cheng-Prusoff equation ([59]) in GraphPad Prism.

SERT allosteric site = molecular target: T2, SERT allosteric site (Homo sapiens, UniProt P31645, I291A/T439S); assay: [3H]VLZ competition binding (SPA) in the presence of imipramine, allosteric site; conditions: 800 nM [3H]VLZ and 800 nM imipramine, NaCl; read-out: Ki, competition with [3H]VLZ (affinity for the allosteric site)
T2 construct: GFP (C); Strep tag (purification tag); made in house; host or cells: HEK-293S GnTI- cells, baculovirus-mediated transduction
Experimental: as §1

SERT [2] = molecular target: T1, SERT; assay: Uptake of 3H-labeled N-indole methyl derivative in HEK-293S GnTI- cells transduced with ΔN72/C13 SERT; assay type: cell-based; conditions: 3H-labeled compound, fig. S3H
Experimental: To measure the uptake of the N-indole methyl derivative, 1 × 10^5 HEK-293S GnTI^− cells were transduced with viruses for ΔN72/C13 SERT. The cells were plated into 96-well plates coated with poly-D-lysine. After 24 hours, cells were washed with uptake buffer [25 mM Hepes-tris (pH 7), 130 mM NaCl, 5.4 mM KCl, 1.2 mM CaCl2, 1.2 mM MgSO4, 1 mM ascorbic acid, and 5 mM glucose]. The custom-synthesized [^3H]3-(2-aminoethyl)-1-methyl-1H-indol-5-ol hydrochloride isotope was diluted 1:1000 with unlabeled ligand, and a final concentration 0.78 to 100 μM was added to the cells. Uptake was stopped at 5 min by rapidly washing cells three times with 100 μl of uptake buffer, solubilizing with 20 μl of 1% Triton-X100, followed by addition of 200 μl of scintillation fluid to each well. A final concentration of 100 μM S-citalopram was added to the cells to estimate nonspecific counts. The amount of labeled 3-(2-aminoethyl)-1-methyl-1H-indol-5-ol hydrochloride was measured by counting in a standard 96-well plate using a MicroBeta scintillation counter.

T1 sequence (P31645 73-617 limits assumed): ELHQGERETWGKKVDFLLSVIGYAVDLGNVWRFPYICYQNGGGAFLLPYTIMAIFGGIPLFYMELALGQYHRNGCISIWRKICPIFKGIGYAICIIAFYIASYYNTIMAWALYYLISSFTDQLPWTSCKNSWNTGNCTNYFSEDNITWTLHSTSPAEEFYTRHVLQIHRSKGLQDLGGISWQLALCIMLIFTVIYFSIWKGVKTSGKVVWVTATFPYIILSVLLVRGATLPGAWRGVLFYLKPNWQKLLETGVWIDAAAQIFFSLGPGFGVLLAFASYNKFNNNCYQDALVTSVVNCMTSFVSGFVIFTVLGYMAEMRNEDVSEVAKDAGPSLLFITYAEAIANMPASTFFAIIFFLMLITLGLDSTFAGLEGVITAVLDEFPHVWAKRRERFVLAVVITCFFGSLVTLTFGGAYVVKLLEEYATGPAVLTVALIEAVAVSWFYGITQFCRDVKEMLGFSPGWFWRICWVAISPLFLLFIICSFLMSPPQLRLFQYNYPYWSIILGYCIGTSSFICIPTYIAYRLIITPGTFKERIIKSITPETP
T2 sequence (P31645 whole entry I291A/T439S): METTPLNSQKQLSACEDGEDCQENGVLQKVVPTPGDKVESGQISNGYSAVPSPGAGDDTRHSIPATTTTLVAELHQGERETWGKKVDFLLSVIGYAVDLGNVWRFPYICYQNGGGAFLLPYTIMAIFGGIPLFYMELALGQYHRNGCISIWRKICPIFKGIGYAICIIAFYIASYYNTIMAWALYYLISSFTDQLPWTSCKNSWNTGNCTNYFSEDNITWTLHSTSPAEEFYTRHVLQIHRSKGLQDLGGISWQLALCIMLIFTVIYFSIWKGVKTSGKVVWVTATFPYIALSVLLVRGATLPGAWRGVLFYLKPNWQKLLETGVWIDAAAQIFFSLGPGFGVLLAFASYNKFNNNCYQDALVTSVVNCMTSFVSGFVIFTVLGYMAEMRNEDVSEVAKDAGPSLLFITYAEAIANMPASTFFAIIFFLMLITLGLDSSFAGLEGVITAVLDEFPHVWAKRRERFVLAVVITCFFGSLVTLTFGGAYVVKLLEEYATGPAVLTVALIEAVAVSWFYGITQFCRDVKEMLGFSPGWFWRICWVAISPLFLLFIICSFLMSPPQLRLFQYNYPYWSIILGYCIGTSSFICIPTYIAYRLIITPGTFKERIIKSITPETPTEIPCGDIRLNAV

SMILES	Ki (SERT [1])	Ki (SERT allosteric site)	substrate for SERT (uptake) (SERT [2])
Cl.Cn1cc(CCN)c2cc(O)ccc21 [3-(2-aminoethyl)-1-methyl-1H-indol-5-ol hydrochloride]	5.4 ± 1 µM	24.9 ± 5.4 µM	robust substrate
CNCCc1c[nH]c2ccc(OC)cc12 [5-methoxy-N-methyltryptamine]	3.9 ± 0.9 µM	–	–
CNCCc1c[nH]c2ccc(O)cc12 [N-ω-methyl-5-hydroxytryptamine]	2.8 ± 0.9 µM	–	–
